Assay results as given in publication PMC4861903, “Synthesis of a highly water-soluble acacetin prodrug for treating experimental atrial fibrillation in beagle dogs” (Scientific Reports, 2016).
Where two headings read alike, the source gives them in different places.

Legend:
[1] = Acute toxicity assessment in ICR mice, single i.v. dose; type: in vivo; settings: both sexes, ICR, mouse, in vivo, iv, Bliss method
Experimental: (§1) The acute toxicity of acacetin prodrug was assessed in ICR mice (weighing 18~22 g) as described in Supplemental Materials, and the LD50 was calculated by the Bliss method. […]
(§2) Acute toxicity assessment of acacetin prodrug
(§3) The acute toxicity of acacetin prodrug was assessed in ICR mice (weighing 18~22 g) provided by the Laboratory Animal Center of Hong Kong University (Hong Kong, China) and maintained under controlled temperature conditions (23 °C), with a constant 12 h light-dark cycle and free access to food and water. Sixty ICR mice (male, 30; female, 30) were stratified by weight and randomly assigned to six groups: (n = 10 in each group, 5 male and 5 female).
(§4) Acacetin prodrug dissolved in 5% glucose was intravenously administered at 900, 810, 765, 720, 630 and 540 mg/kg through tail vein, respectively. The animals were closely observed for symptoms and mortality in 24 h. All of the surviving animals were euthanized at the end of the study, and their vital organs were individually observed for gross pathology by necropsy, and the LD50 was calculated by the Bliss method.11, 12

[2] = test system: ICR mice; assay: as above; type: in vivo
Experimental: as §1, §2, §3, §4

[3] = target: T1, hKv1.5 current (IKur, KCN5A) (Homo sapiens, UniProt P22460); assay: Whole-cell patch clamp of hKv1.5 current in HEK 293 cells; type: cell-based; settings: 30 μM, at +50 mV, n = 5
T1 construct: expressed in transfected cells
Experimental: Whole-cell currents of hKv1.5 and hKv4.3 were recorded in established HEK 293 cell lines stably expressing hKv1.5 (KCN5A) and hKv4.3 (KCND3) and IKACh was determined in isolated rat atrial myocytes as described previously[12][31][32] and in Supplemental Materials. […]
Effects of acacetin prodrug on cardiac potassium currents
Whole-cell currents of hKv1.5 and hKv4.3 were recorded in established HEK 293 cell lines stably expressing hKv1.5 (KCN5A) and hKv4.3 (KCND3).1, 2 The cells were cultured in Dulbecco’s modified eagle’s medium (DMEM, Invitrogen, Hong Kong) supplemented with 10% fetal bovine serum and 400 µg/mL G418. Cells on a coverslip were transferred to an open cell chamber (0.5 ml) mounted on the stage of an inverted microscope and superfused with Tyrode’s solution at 2 mL/min. The whole cell patch-clamp technique was used as described previously.1, 2 The whole-cell membrane currents were measured using an EPC-10 amplifier and Pulse software (Heka Elektronik, Lambrecht, Germany). Borosilicate glass electrodes (1.2-mm OD) were pulled with a Brown/Flaming puller (model P-97, Sutter Instrument, Nato, CA) and had resistances of 1.5~2.5 MΩ when filled with the pipette solution. A 3-M KCl agar bridge was used as the reference electrode. The tip potential was zeroed before the patch pipette contacted the cell. […]

[4] = target: T2, hERG channels (Homo sapiens, UniProt Q12809); assay: hERG current in HEK 293 cells; type: cell-based; settings: 30 μM, n = 4, data not shown
T2 construct: expressed in transfected cells; host or cells: HEK 293

[5] = Ex vivo bioconversion of acacetin prodrug in rat plasma; type: in vitro ADME; settings: 37 °C, n = 3
Experimental: The ex vivo bioconversion of acacetin prodrug was determined in rat plasma or rat hepatic microsome that contains high content alkaline phosphatase, as described previously[30] and in Supplemental Materials. The in vivo bioconversion of acacetin prodrug was determined in beagle dogs as described in Supplemental Materials. […]
Bioconversion of acacetin prodrug in rat plasma and hepatic microsomes
Hydrolysis of acacetin prodrug was initially determined in rat plasma. The 100 µL rat plasma samples containing 5 µg/mL prodrug was prepared at 4 °C and then incubated in a water bath at 37 °C and continuously shaken at 60 rpm. The plasma samples were collected at 0, 5, 15, 30, 60, 120, 180, 240 and 360 min, respectively. The reaction was terminated by adding 1 mL cold methanol containing the IS solution (50 ng/mL pentamethylquercetin). […]
The reaction mixture […]
was prepared in 50 mM Tris-HCl buffer (pH = 7.4) with 1 mM NADPH (nicotinamide adenine dinucleotide phosphate) and 0.5 mg/mL (total protein) microsomes. Prodrug solutions were added to the microsomes reaction mixture with a final concentration of 5 µg/mL. The reaction solution was incubated in a water bath at 37℃ and shaken at 60 rpm for 1 h. The samples were collected at 0, 1, 2, 15, 30 and 60 min. […] After centrifugation at 12000 g for 30 min, the supernatant was immediately analyzed by HPLC. […]

T1 sequence (P22460 whole entry): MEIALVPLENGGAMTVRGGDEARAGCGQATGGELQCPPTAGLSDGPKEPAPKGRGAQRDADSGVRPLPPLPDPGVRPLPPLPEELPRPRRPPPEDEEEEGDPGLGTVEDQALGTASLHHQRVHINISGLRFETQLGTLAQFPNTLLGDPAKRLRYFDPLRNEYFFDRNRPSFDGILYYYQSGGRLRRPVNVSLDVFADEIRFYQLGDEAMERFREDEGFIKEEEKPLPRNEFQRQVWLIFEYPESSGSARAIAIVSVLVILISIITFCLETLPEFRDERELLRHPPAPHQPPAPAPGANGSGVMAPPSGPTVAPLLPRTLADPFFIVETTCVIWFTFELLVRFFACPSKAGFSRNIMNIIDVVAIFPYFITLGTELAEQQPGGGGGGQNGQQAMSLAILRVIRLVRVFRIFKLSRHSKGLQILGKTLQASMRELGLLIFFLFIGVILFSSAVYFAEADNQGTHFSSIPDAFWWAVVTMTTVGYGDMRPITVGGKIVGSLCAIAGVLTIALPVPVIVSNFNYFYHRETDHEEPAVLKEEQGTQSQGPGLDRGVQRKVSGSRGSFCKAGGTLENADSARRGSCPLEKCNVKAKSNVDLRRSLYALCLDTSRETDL
T2 sequence (Q12809 whole entry): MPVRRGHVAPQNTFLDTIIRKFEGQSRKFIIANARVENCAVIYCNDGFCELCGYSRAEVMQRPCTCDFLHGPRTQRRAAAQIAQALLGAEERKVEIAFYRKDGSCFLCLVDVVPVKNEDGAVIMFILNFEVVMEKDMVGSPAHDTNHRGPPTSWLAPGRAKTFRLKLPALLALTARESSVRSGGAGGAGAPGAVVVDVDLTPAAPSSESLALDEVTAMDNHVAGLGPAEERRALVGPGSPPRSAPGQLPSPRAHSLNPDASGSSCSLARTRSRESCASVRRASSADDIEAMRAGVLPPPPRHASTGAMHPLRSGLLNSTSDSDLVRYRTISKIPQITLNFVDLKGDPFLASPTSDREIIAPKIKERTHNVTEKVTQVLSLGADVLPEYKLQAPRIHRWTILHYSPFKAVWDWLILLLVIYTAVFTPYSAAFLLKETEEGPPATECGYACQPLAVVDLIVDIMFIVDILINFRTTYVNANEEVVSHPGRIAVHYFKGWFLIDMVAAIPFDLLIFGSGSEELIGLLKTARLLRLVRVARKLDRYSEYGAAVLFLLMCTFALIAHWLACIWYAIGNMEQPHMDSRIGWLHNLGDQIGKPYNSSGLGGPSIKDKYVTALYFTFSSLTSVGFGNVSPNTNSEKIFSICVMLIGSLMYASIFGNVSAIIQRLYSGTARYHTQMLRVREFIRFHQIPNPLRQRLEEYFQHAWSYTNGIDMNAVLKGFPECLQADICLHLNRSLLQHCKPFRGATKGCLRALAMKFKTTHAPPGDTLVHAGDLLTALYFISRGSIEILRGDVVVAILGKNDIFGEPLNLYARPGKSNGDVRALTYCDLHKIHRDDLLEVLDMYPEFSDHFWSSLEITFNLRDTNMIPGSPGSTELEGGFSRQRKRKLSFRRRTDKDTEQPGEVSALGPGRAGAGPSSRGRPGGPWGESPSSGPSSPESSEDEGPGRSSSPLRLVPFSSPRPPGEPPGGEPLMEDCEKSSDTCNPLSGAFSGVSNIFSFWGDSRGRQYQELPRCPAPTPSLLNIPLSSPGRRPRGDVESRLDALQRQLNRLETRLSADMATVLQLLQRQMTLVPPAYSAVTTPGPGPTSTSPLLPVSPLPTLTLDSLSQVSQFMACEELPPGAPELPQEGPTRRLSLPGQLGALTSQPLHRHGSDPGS

SMILES: COc1ccc(-c2cc(=O)c3c(O)cc(OP(=O)([O-])[O-])cc3o2)cc1.[Na+].[Na+] [acacetin prodrug, phosphate sodium salt of acacetin]
- LD50 at 24 h ([1]; read-out: LD50 with 95% confidence level): 685 to 760 mg/kg
- LD50 at 24 h ([1]; intravenous (tail vein), single dose, read-out: LD50): 722 mg/kg
- mortality ([2]; i.v. dose of 900 mg/kg): all animals died
- survival within 24 h ([2]; i.v. dose of up to 540 mg/kg): All animals survived
- adverse effects or signs of toxicity in the surviving animals ([2]; i.v., 24 h observation): No significant adverse effects or signs of toxicity
- necropsy of the surviving mice ([2]; i.v., end of study): no gross pathological alteration
- LD50 ([2]; intravenous (tail vein), single dose, Bliss method): 721 mg/kg
- inhibition of hKv1.5 current [3]: no significant inhibition
- effect on hERG channels [4]: no such effect
- prodrug converted into acacetin ([5]; 60 min incubation): 50%
- prodrug converted into acacetin ([5]; within 240 min incubation): 100%
